{"source": "patent US20050049174A1", "about": "“Method and substance for facilitating weaning, reducing morbidity and reducing mortality in cardiac surgeries involving extra-corporal circulation” (priority 2003, published 2005)", "key": {"cardiac surgery patients": {"system": "cardiac surgery patients", "conditions": "cited from earlier work; for Result: hemodynamic effects, amrinone vs milrinone: n 44, elective cardiac surgery, bolus amrinone 0.75 mg/kg or milrinone 25 μg/kg"}, "[1]": {"system": "rings of porcine pulmonary artery with endothelium", "assay": "vascular reactivity studies in organ chambers after cardiopulmonary bypass", "type": "in vivo, Landrace swine", "conditions": "for KCL: amplitude of the contraction to KCl (60 mmol/L) / Dose PE: concentration of PE used to obtain 50% of contraction to KCl: mean +/- SEM", "description": "After 60 minutes of reperfusion, swine were sacrificed and pulmonary arteries harvested. After contraction to phenylephrine, pulmonary arteries endothelium-dependent relaxations to bradykinin (Gq coupled) and acetylcholine (Gi coupled) were studied in standard organ chamber experiments.\nLess than 10 minutes after “en bloc” excision, the heart was removed and the primary pulmonary artery was dissected. Branches of second degree pulmonary arteries were isolated and dissected free of connective and adventitial tissue and divided into rings (4 mm wide; 16 rings per animal). All rings were placed in organ chambers (Emka technologies Inc, Paris, France) filled with 20 mL modified Krebs-bicarbonate solution continuously heated at 37° C. and oxygenated with a carbogen mixture (95% O2 and 5% CO2). The rings were suspended between 2 metal stirrups with the upper 1 connected to an isometric force transducer connected to a signal amplifier and then allowed to stabilize for 30 minutes. Data were collected with a biological signal data acquisition software (IOX 1.700; Emka technologies Inc, Paris, France). Each arterial ring was stretched to the optimal point of its active length-tension curve (3.5 g) as determined by measuring the contraction to potassium chloride (KCl) 60 mmol/L at different levels of stretch (data not shown). The maximal contraction of rings was then obtained with addition of potassium chloride (KCl 60 mmol/L). After obtention of a plateau, all baths were washed twice with modified Krebs bicarbonate solution and indomethacin ([…]; to exclude production of endogenous prostanoids) was added in each bath. After 45 minutes of stabilisation, phenylephrine (range 2 {acute over} 10-7 mol/L to 3 {acute over} 10-6 mol/L) was added to obtain a contraction averaging 50% of the maximal contraction to KCl.\nThe NO-mediated relaxation pathway was studied by constructing concentration-response curves to acetylcholine (ACh, 10-9 to 10-5 mol/L; an agonist of M2 receptors coupled to Gi-proteins) and to bradykinin (BK, 10-12 to 10—6 mol/L; an agonist of B2 receptors coupled to Gq-proteins).\nAt the end of the experiment, endothelium-independent relaxations were studied with the use of 10-5 mol/L sodium nitroprusside (SNP), a nitric oxide donor\nAll values are expressed as the mean±standard error of the mean (SEM). Contractions to phenylephrine are expressed as a percentage of the maximal contraction to KCl (60 mmol/L). Relaxations are expressed as the percentage of the maximal contraction to phenylephrine for each ring. Two-way repeated analysis of variance (ANOVA) were performed to compare each point of the concentration-response curves between control rings and CPB rings. Student's t test for paired/unpaired observations was used for the comparison of the pulmonary artery pressures and the intravascular cAMP content. Statistical analysis was performed with the computer software S.A.S (Instr Inc. Cary, N.C., USA). A P-value less than 0.05 was considered statistically significant."}, "[2]": {"system": "person in cardiogenic shock", "assay": "inhaled milrinone in a person in cardiogenic shock (echocardiographic and hemodynamic monitoring)", "type": "in vivo, human", "conditions": "5 mg milrinone through inhalation", "from_the_text": "Finally, the cardiac index increased from 1.8 to 2.8 L.min/m^2."}, "[3]": {"system": "porcine subjects undergoing cardiopulmonary bypass"}, "[4]": {"system": "patients with pulmonary hypertension", "conditions": "inhaled milrinone; cited from earlier work"}, "[5]": {"system": "coronary care unit patients hospitalized for an exacerbation of chronic heart failure", "conditions": "cited from earlier work"}, "[6]": {"system": "person operated under cardiopulmonary bypass", "assay": "inhaled prostacyclin at weaning from bypass in a person", "type": "in vivo, human", "conditions": "weaned with inhaled prostacyclin (75 μg)", "description": "In another case, a person was operated for a third time under cardiopulmonary bypass. […] Pre-operatively, they had abnormal right ventricular diastolic function with a lower systolic or S wave on the hepatic venous Doppler signal. After bypass (duration 157 min), they were weaned with inhaled prostacyclin (75 μg) and they left the operating room with noradrenaline at 2.5 μg/min and nitroglycerine at 0.4 μg/kg/min."}, "[7]": {"system": "patient, mitral valve and tricuspid valve repair", "assay": "inhaled prostacyclin prior to extra-corporal circulation in a patient", "type": "in vivo, human", "from_the_text": "This is to be contrasted with changes observed in Doppler hepatic venous flow after inhaled prostacyclin in a patient scheduled to undergo mitral valve and tricuspid valve repair. […] This was associated with a reduction in mean pulmonary artery pressure from 36 to 29 mmHg, pulmonary vascular resistance index from 589 to 267 dynes.s/cm^5/m^2 and an increase in cardiac index from 1.9 to 2.4 L/min/m^2. Heart rate and mean arterial pressure decreased respectively from 63 to 52 beats/min and from 76 to 64 mmHg."}, "[8]": {"conditions": "intravenous; animal studies; cited from earlier work"}, "[9]": {"system": "heart transplant candidate", "conditions": "inhaled prostacyclin group; cited from earlier work"}, "[10]": {"conditions": "n 120, low CO after cardiac surgery"}}, "note": "Entries after “also recorded” stand apart in the source; their conditions may differ. Like-named read-outs stand apart in the source and are kept apart here. Marks after values point to notes of the source that are not given here."}
{"molecule": "[N]=O", "note": "[NO, nitric oxide]", "values": [{"measurement": "Result: right ventricular ejection fraction", "setting": "cardiac surgery patients; n 45, pulmonary hypertension, Group 3 40 ppm NO compared to group 1 (milrinone) and 2 (20 ppm NO)", "value": "Group 3 (40 ppm)higher right"}]}
{"molecule": "Nc1cc(-c2ccncc2)c[nH]c1=O", "note": "[amrinone]", "values": [{"measurement": "Result: hemodynamic effects, amrinone vs milrinone", "setting": "cardiac surgery patients", "value": "produced similar"}]}
{"molecule": "CC(CCc1ccc(O)cc1)NCCc1ccc(O)c(O)c1", "note": "(stereo not drawn) [dobutamine]", "values": [{"measurement": "Result: overall comparison milrinone and dobutamine", "setting": "cardiac surgery patients; [10]", "value": "comparable"}, {"measurement": "Result: increases in cardiac index", "setting": "cardiac surgery patients; n 120, low CO after cardiac surgery, dobutamine 10 to 20 μg/kg/min vs milrinone", "value": "group D had greater"}]}
{"molecule": "Cc1[nH]c(=O)c(C#N)cc1-c1ccncc1", "note": "[milrinone]", "values": [{"measurement": "KCL: amplitude of the contraction to KCl (60 mmol/L)", "setting": "[1]; Mil INH group", "value": "4.8 +/− 0.28"}, {"measurement": "Dose PE: concentration of PE used to obtain 50% of contraction to KCl", "setting": "[1]; Mil INH group, p<0.01 vs intravenous milrinone, p<0.05 vs control", "value": "greater"}, {"measurement": "Dose PE: concentration of PE used to obtain 50% of contraction to KCl", "setting": "[1]; Mil INH group, p<0.01 vs intravenous milrinone, p<0.05 vs control, listed as Mil INH", "value": "8.3 +/− 0.93*,**"}, {"measurement": "Dose PE: concentration of PE used to obtain 50% of contraction to KCl", "setting": "[1]; Mil IV group", "value": "4.1 +/− 0.3"}, {"measurement": "KCL: amplitude of the contraction to KCl (60 mmol/L)", "setting": "[1]; Mil IV group", "value": "4.0 +/− 0.3"}, {"measurement": "endothelium-dependent relaxation to BK", "setting": "[1]; inhaled milrinone compared to all other groups, P<0.05, FIG. 10", "value": "increased relaxation; also recorded: preventive effect"}, {"measurement": "CPB-induced decrease of endothelium-dependent relaxation to ACh", "setting": "[1]; inhaled milrinone prior to CPB, FIG. 9", "value": "completely reversed; also recorded: preventive effect"}, {"measurement": "endothelium-dependent relaxation to BK: preventive effect on endothelial function", "setting": "[1]; intravenous milrinone, FIG. 10", "value": "not seen"}, {"measurement": "right atrial pressure (RAP) after administration", "setting": "[2]; decrease from 17", "value": 7, "unit": "mm Hg"}, {"measurement": "mean pulmonary arterial pressure after administration", "setting": "[2]; decrease from 33", "value": 24, "unit": "mm Hg"}, {"measurement": "mean arterial pressure after administration", "setting": "[2]; decrease from 92", "value": 77, "unit": "mm Hg"}, {"measurement": "heart rate after administration", "setting": "[2]; increase from 72", "value": 84, "unit": "beats/minutes"}, {"measurement": "systemic vascular resistance after bolus", "setting": "[3]; in vivo", "value": "did not fall"}, {"measurement": "heart rate", "setting": "[3]; in vivo, iv", "value": "increased"}, {"measurement": "systemic vascular resistance after bolus", "setting": "[3]; in vivo, iv", "value": "important decrease"}, {"measurement": "heart rate", "setting": "[3]; inhaled milrinone vs CPB, at 15, 45 and 75 minutes per CPB and 30 and 60 minutes post CPB, p<0.05, FIG. 6", "value": "significantly lower"}, {"measurement": "mean arterial pressure following administration of the bolus", "setting": "[3]; inhaled milrinone, bolus of 60-90 mg/kg via nebulizer during 15 minutes preceding CPB, p<0.05, FIG. 2", "value": "significant decrease"}, {"measurement": "pulmonary vascular resistance", "setting": "[4]", "value": "reduce pulmonary vascular resistance; also recorded: lowered pulmonary vascular resistances"}, {"measurement": "Result: wean from bypass", "setting": "cardiac surgery patients; n 32, LVEF ≦ 35%, PCWP ≧ 20 mmHg pre-bypass, bolus 50 ug/kg, perfusion 0.5 ug/kg/min, vs 5/15 placebo", "value": "All patients with milrinone"}, {"measurement": "Result: hemodynamic effects, amrinone vs milrinone", "setting": "cardiac surgery patients", "value": "produced similar"}, {"measurement": "Result: overall comparison milrinone and dobutamine", "setting": "cardiac surgery patients; [10]", "value": "comparable"}, {"measurement": "Result: decreases in mean pulmonary capillary wedge pressure", "setting": "cardiac surgery patients; n 120, low CO after cardiac surgery, milrinone 50 μg/kg and perfusion 0.5 μg/kg/min vs dobutamine", "value": "Group M had greater"}, {"measurement": "median number of days hospitalized for cardiovascular causes within 60 days", "setting": "[5]; intravenous milrinone vs placebo", "value": "no difference"}, {"measurement": "in-hospital mortality", "setting": "[5]; intravenous milrinone, vs 2.3% placebo, P=0.19", "value": 3.8, "unit": "%"}, {"measurement": "60-day mortality", "setting": "[5]; intravenous milrinone, vs 8.9% placebo, P=0.41", "value": 10.3, "unit": "%"}]}
{"molecule": "CCCCC[C@H](O)/C=C/[C@@H]1[C@H]2C/C(=C/CCCC(=O)O)O[C@H]2C[C@H]1O", "note": "[prostacyclin]", "values": [{"measurement": "vasoactive drugs in the post-operative period", "setting": "[6]", "value": "No vasoactive drugs were required"}, {"measurement": "mean arterial pressure after bypass", "setting": "[6]; decreased from 78", "value": 67, "unit": "mmHg"}, {"measurement": "cardiac index after bypass", "setting": "[6]; increase from 2.3", "value": 3.3, "unit": "L/min/m^2"}, {"measurement": "heart rate after bypass", "setting": "[6]; increased from 66", "value": 85, "unit": "beats/min"}, {"measurement": "pulmonary vascular resistance indexed after bypass", "setting": "[6]; reduction from 242", "value": 121, "unit": "dynes.s/cm^5/m^2"}, {"measurement": "hepatic venous flow signal", "setting": "[6]; right ventricular diastolic waveform still abnormal", "value": "did not change significantly"}, {"measurement": "vasoactive drugs used post-operatively", "setting": "[7]", "value": "no vasoactive drugs used"}, {"measurement": "difficult separation from bypass", "setting": "[7]; cardiopulmonary bypass time of 138 min", "value": "no difficult separation from bypass"}, {"measurement": "heart rate", "setting": "[7]; decreased from 63", "value": 52, "unit": "beats/min"}, {"measurement": "mean arterial pressure", "setting": "[7]; decreased from 76", "value": 64, "unit": "mmHg"}, {"measurement": "cardiac index", "setting": "[7]; increase from 1.9", "value": 2.4, "unit": "L/min/m^2"}, {"measurement": "Doppler hepatic venous flow systolic or S wave", "setting": "[7]; negative value before, within 18 minutes", "value": "became positive and less pronounced"}, {"measurement": "mean pulmonary artery pressure", "setting": "[7]; reduction from 36", "value": 29, "unit": "mmHg"}, {"measurement": "pulmonary vascular resistance index", "setting": "[7]; reduction from 589", "value": 267, "unit": "dynes.s/cm^5/m^2"}, {"measurement": "half-life", "setting": "[8]", "value": "2 to 3", "unit": "min"}, {"measurement": "cardiac output increased by", "setting": "[9]", "value": 11, "unit": "%"}]}
